From patent US10570184B2, “GLP-1/glucagon receptor co-agonists for medical use” (Novo Nordisk A/S, priority 2014, dated 2020)
Starred links: 1 amine or outer side, 2 acyl side, 3 side chain; linkers in the order of their positions; H or OH if unused. Non-standard residues stand in square brackets, D forms with d. Residues, ends and D or L forms follow the SMILES beside them. Groups on a side chain read outwards from the residue. *: point of attachment. C18 diacid = O=C(O)CCCCCCCCCCCCCCCCC(=O)*; γGlu = O=C(O)[C@H](CCC(=O)[*:2])N[*:1]; AEEA = NCCOCCOCC(=O)O; Aib = CC(C)(N)C(=O)O

The compounds below were run against T1, human glucagon receptor (Homo sapiens, UniProt P47871) (assay: Assay (I)(b) glucagon receptor activation, CRE luciferase reporter gene assay in BHK cells). Settings: without presence of serum albumin; read-out: GlucagonR EC50 (pM), [Assay (I)(b)].
T1 construct: expressed in transfected cells; host or cells: membranes of BHK cells, clone BHK hGCGR A3*25
T1 sequence (P47871 26-477): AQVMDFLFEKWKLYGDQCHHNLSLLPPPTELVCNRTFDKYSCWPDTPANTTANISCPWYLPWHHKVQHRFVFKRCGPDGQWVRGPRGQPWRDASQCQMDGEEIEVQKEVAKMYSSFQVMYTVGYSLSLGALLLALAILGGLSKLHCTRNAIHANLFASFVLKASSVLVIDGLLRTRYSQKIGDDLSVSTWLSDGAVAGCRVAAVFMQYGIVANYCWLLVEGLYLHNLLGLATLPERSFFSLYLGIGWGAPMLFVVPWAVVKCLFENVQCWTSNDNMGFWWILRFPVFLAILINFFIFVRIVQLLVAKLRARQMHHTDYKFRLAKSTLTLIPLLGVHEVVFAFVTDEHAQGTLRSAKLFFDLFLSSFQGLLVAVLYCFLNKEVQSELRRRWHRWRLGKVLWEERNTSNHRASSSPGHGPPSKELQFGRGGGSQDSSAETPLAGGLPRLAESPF
Format: cell-based
Experimental: The purpose of this example was to test the activity or potency, of the glucagon derivatives of the invention, in vitro. The in vitro potency is the measure of human GLP-1 receptor (GLP-1R) or glucagon receptor (glucagonR) activation, respectively, in a whole cell assay. In vitro potency was determined by measuring the response of human GLP-1 or glucagon receptor, respectively, in a reporter gene assay. The assay was performed in a stably transfected BHK cell line that expresses either the human GLP-1 receptor or the human glucagon receptor and contains the DNA for the cAMP response element (CRE) coupled to a promoter and the gene for firefly luciferase (CRE luciferase). […] When assay incubation was completed, the luciferase substrate (luciferin) was added and the enzyme converted luciferin to oxyluciferin and produces bioluminescence. The luminescence was measured as the readout for the assay. The cells used in this assay (clone pLJ6′-4-25) were BHK cells with BHK570 as a parent cell line expressing the CRE luciferase gene (clone BHK/KZ10-20-48) and were established by further transfection with the human glucagon receptor (clone pLJ6′ in pHZ-1 vector). The cells were cultured at 5% CO2 in DMEM medium with 10% FBS, 1×GlutaMAX, 1 mg/ml G418, 240 nM MTX (methotrexate) and 1% pen/strep (penicillin/streptomycin). They were aliquoted and stored in liquid nitrogen. Before each assay, an aliquot was taken up and washed three times in PBS before being suspended at the desired concentration in assay medium. For 96-well plates the suspension was made to give a final concentration of 5×10EE3 cells/well. The following chemicals were used in the assay: Pluronic F-68 (10%) (Gibco 2404), ovalbumin (Sigma A5503), DMEM w/o phenol red (Gibco 11880-028), 1 M Hepes (Gibco 15630), Glutamax 100× (Gibco 35050) and steadylite plus (PerkinElmer 6016757). Assay Medium consisted of DMEM w/o phenol red, 10 mM Hepes, 1× GlutaMAX, 2% Ovalbumin and 0.2% Pluronic F-68. Cell stocks were thawed in a 37° C. water bath. Cells were washed three times in PBS. The cells were counted and adjusted to 5×10EE3 cells/50 μl (1×10EE5 cells/ml) in Assay Medium. A 50 μl aliquot of cells was transferred to each well in the assay plate. Stocks of the test compounds and reference compounds were diluted to a concentration of […] in Assay Medium. Compounds were diluted 10-fold to give the following concentrations: 2×10EE-6 M, 2×10EE-7 M, 2×10EE-8 M; 2×10EE-9 M, 2×10EE-10 M, 2×10EE-11 M, 2×10EE-12 M and 2×10EE-13 M. For each compound a blank assay medium control was also included. A 50 μl aliquot of compound or blank was transferred from the dilution plate to the assay plate. Compounds were tested at the following final concentrations: 1×10EE-6 M, 1×10EE-7 M, 1×10EE-8 M; 1×10EE-9 M, 1×10EE-10 M, 1×10EE-11 M and 1×10EE-12 M and 1×10EE-13 M. The assay plate was incubated for 3 h in a 5% CO2 incubator at 37° C. The assay plate was removed from the incubator and allowed to stand at room temperature for 15 min. A 100 μl aliquot of steadylite plus reagent was added to each well of the assay plate (reagent is light sensitive). Each assay plate was covered with aluminum foil to protect it from light and shaken for 30 min at room temperature. Each assay plate was read in a Perkin Elmer TopCount NXT instrument. The data from the TopCount instrument was transferred to GraphPad Prism software. The software performed a non-linear regression (log(agonist) vs response-Variable slope (four parameter)). EC50 values were calculated by the software and reported in pM.

| EC50 | SMILES |
| --- | --- |
| 12 pM | CC[C@H](C)[C@H](NC(=O)[C@H](CC(C)C)NC(=O)[C@H](Cc1c[nH]c2ccccc12)NC(=O)[C@H](CCCCNC(=O)COCCOCCNC(=O)COCCOCCNC(=O)CC[C@H](NC(=O)CC[C@H](NC(=O)CC[C@H](NC(=O)CCCCCCCCCCCCCCCCC(=O)O)C(=O)O)C(=O)O)C(=O)O)NC(=O)[C@@H](NC(=O)[C@H](Cc1ccccc1)NC(=O)[C@H](CCC(=O)O)NC(=O)[C@H](CCCNC(=N)N)NC(=O)[C@H](C)NC(=O)[C@H](CCCNC(=N)N)NC(=O)[C@H](CCCNC(=N)N)NC(=O)[C@H](C)NC(=O)[C@H](CC(=O)O)NC(=O)[C@H](CC(C)C)NC(=O)[C@H](Cc1ccc(O)cc1)NC(=O)[C@H](CCCCN)NC(=O)[C@H](CO)NC(=O)[C@H](Cc1ccc(O)cc1)NC(=O)[C@H](CC(=O)O)NC(=O)[C@H](CO)NC(=O)[C@@H](NC(=O)[C@H](Cc1ccccc1)NC(=O)[C@@H](NC(=O)CNC(=O)[C@H](CCC(N)=O)NC(=O)C(C)(C)NC(=O)[C@@H](N)Cc1c[nH]cn1)[C@@H](C)O)[C@@H](C)O)C(C)C)C(=O)N[C@@H](CO)C(=O)N[C@H](C(N)=O)[C@@H](C)O [Chem. 4, N^ε24-[2-[2-[2-[[2-[2-[2-[[(4S)-4-carboxy-4-[[(4S)-4-carboxy-4-[[(4S)-4-carboxy-4-(17-carboxyheptadecanoylamino)butanoyl]amino]butanoyl]amino]butanoyl]amino]ethoxy]ethoxy]acetyl]amino]ethoxy]ethoxy]acetyl]-[Aib2,Ala16,Arg20,Glu21,Lys24,Ile27,Ser28]-Glucagon amide] (H-H[Aib]QGTFTSDYSKYLDARRAREFVK([AEEA-AEEA-γGlu-γGlu-γGlu-C18 diacid])WLIST-NH2; N-terminus assumed) |
| 7 pM | CC[C@H](C)[C@H](NC(=O)[C@H](CC(C)C)NC(=O)[C@H](Cc1c[nH]c2ccccc12)NC(=O)[C@H](C)NC(=O)[C@@H](NC(=O)[C@H](Cc1ccccc1)NC(=O)[C@H](CC(=O)O)NC(=O)[C@H](CCCNC(=N)N)NC(=O)[C@H](C)NC(=O)[C@H](CCCNC(=N)N)NC(=O)[C@H](CCCNC(=N)N)NC(=O)[C@H](C)NC(=O)[C@H](CC(=O)O)NC(=O)[C@H](CC(C)C)NC(=O)[C@H](Cc1ccc(O)cc1)NC(=O)[C@H](CCCCN)NC(=O)[C@H](CO)NC(=O)[C@H](Cc1ccc(O)cc1)NC(=O)[C@H](CC(=O)O)NC(=O)[C@H](CO)NC(=O)[C@@H](NC(=O)[C@H](Cc1ccccc1)NC(=O)[C@@H](NC(=O)CNC(=O)[C@H](CCC(N)=O)NC(=O)C(C)(C)NC(=O)[C@@H](N)Cc1c[nH]cn1)[C@@H](C)O)[C@@H](C)O)C(C)C)C(=O)N[C@@H](CCCCNC(=O)CC[C@H](NC(=O)CC[C@H](NC(=O)COCCOCCNC(=O)COCCOCCNC(=O)CC[C@H](NC(=O)CCCCCCCCCCCCCCCCC(=O)O)C(=O)O)C(=O)O)C(=O)O)C(=O)N[C@H](C(N)=O)[C@@H](C)O [Chem. 32, N^ε28-[(4S)-4-carboxy-4-[[(4S)-4-carboxy-4-[[2-[2-[2-[[2-[2-[2-[[(4S)-4-carboxy-4-(17-carboxyheptadecanoylamino)butanoyl]amino]ethoxy]ethoxy]acetyl]amino]ethoxy]ethoxy]acetyl]amino]butanoyl]amino]butanoyl]-[Aib2,Ala16,Arg20,Ala24,Ile27,Lys28]-Glucagon amide] (H-H[Aib]QGTFTSDYSKYLDARRARDFVAWLIK([γGlu-γGlu-AEEA-AEEA-γGlu-C18 diacid])T-NH2) |
| 66 pM | CC[C@H](C)[C@H](NC(=O)[C@H](CC(C)C)NC(=O)[C@H](Cc1c[nH]c2ccccc12)NC(=O)[C@H](C)NC(=O)[C@@H](NC(=O)[C@H](Cc1ccccc1)NC(=O)[C@H](CC(=O)O)NC(=O)[C@H](CCC(N)=O)NC(=O)[C@H](C)NC(=O)[C@H](CCCNC(=N)N)NC(=O)[C@H](CCCNC(=N)N)NC(=O)[C@H](CO)NC(=O)[C@H](CCC(=O)O)NC(=O)[C@H](CC(C)C)NC(=O)[C@H](Cc1ccc(O)cc1)NC(=O)[C@H](CCCCN)NC(=O)[C@H](CO)NC(=O)[C@H](Cc1ccc(O)cc1)NC(=O)[C@H](CC(=O)O)NC(=O)[C@H](CO)NC(=O)[C@@H](NC(=O)[C@H](Cc1ccccc1)NC(=O)[C@@H](NC(=O)CNC(=O)[C@H](CCC(N)=O)NC(=O)C(C)(C)NC(=O)[C@@H](N)Cc1c[nH]cn1)[C@@H](C)O)[C@@H](C)O)C(C)C)C(=O)N[C@@H](CCCCNC(=O)CC[C@H](NC(=O)CC[C@H](NC(=O)COCCOCCNC(=O)COCCOCCNC(=O)CC[C@H](NC(=O)CCCCCCCCCCCCCCCCC(=O)O)C(=O)O)C(=O)O)C(=O)O)C(=O)N[C@H](C(N)=O)[C@@H](C)O [Chem. 34, N^ε28-[(4S)-4-carboxy-4-[[(4S)-4-carboxy-4-[[2-[2-[2-[[2-[2-[2-[[(4S)-4-carboxy-4-(17-carboxyheptadecanoylamino)butanoyl]amino]ethoxy]ethoxy]acetyl]amino]ethoxy]ethoxy]acetyl]amino]butanoyl]amino]butanoyl]-[Aib2,Glu15,Ala24,Ile27,Lys28]-Glucagon amide] (H-H[Aib]QGTFTSDYSKYLESRRAQDFVAWLIK([γGlu-γGlu-AEEA-AEEA-γGlu-C18 diacid])T-NH2) |
| 32 pM | CC[C@H](C)[C@H](NC(=O)[C@H](CC(C)C)NC(=O)[C@H](Cc1c[nH]c2ccccc12)NC(=O)[C@H](CCC(N)=O)NC(=O)[C@@H](NC(=O)[C@H](Cc1ccccc1)NC(=O)[C@H](CC(=O)O)NC(=O)[C@H](CCC(N)=O)NC(=O)[C@H](C)NC(=O)[C@H](CCCNC(=N)N)NC(=O)[C@H](CCCNC(=N)N)NC(=O)[C@H](C)NC(=O)[C@H](CC(=O)O)NC(=O)[C@H](CC(C)C)NC(=O)[C@H](Cc1ccc(O)cc1)NC(=O)[C@H](CCCCN)NC(=O)[C@H](CO)NC(=O)[C@H](CC(C)C)NC(=O)[C@H](CC(=O)O)NC(=O)[C@H](CO)NC(=O)[C@@H](NC(=O)[C@H](Cc1ccccc1)NC(=O)[C@@H](NC(=O)CNC(=O)[C@H](CCC(N)=O)NC(=O)C(C)(C)NC(=O)[C@@H](N)Cc1c[nH]cn1)[C@@H](C)O)[C@@H](C)O)C(C)C)C(=O)N[C@@H](CCCCNC(=O)COCCOCCNC(=O)COCCOCCNC(=O)CC[C@H](NC(=O)CC[C@H](NC(=O)CC[C@H](NC(=O)CCCCCCCCCCCCCCCCC(=O)O)C(=O)O)C(=O)O)C(=O)O)C(=O)N[C@H](C(N)=O)[C@@H](C)O [Chem. 7, N^ε28-[2-[2-[2-[[2-[2-[2-[[(4S)-4-carboxy-4-[[(4S)-4-carboxy-4-[[(4S)-4-carboxy-4-(17-carboxyheptadecanoylamino)butanoyl]amino]butanoyl]amino]butanoyl]amino]ethoxy]ethoxy]acetyl]amino]ethoxy]ethoxy]acetyl]-[Aib2,Leu10,Ala16,Ile27,Lys28]-Glucagon amide] (H-H[Aib]QGTFTSDLSKYLDARRAQDFVQWLIK([AEEA-AEEA-γGlu-γGlu-γGlu-C18 diacid])T-NH2; N-terminus assumed) |
